From US11673910B2, “Macrolides with modified desosamine sugars and uses thereof” (Zikani Therapeutics, Inc., priority 2017, dated 2023)
Values after ≈ are worked out from the molar mass of the structure shown.

Columns and labels:
Assay type in all cases: cell-based
[1] = test system: P. aeruginosa strain MP-3; assay: Broth dilution MIC determination (CLSI) against P. aeruginosa strain MP-3; details: Pseudomonas aeruginosa, MP3
Description: (§1) Minimum inhibitory concentrations (MICs) for macrolides described herein were determined for E. coli strain MP-4, K. pneumoniae strain MP-548, P. aeruginosa strain MP-3, A. baumannii strain MP-15, and S. aureus strain MP-12 using similar test procedures as published in US Pat. Pub. No. 2017/0305953. MIC data is represented as “+++” for values less than or equal to 4 mg/L, “++” for values of greater than or equal to 8 mg/L and less than 32 mg/L, and “+” for values of 32 mg/L or greater. ND indicates no data for a particular compound. CLSI standard procedures for broth dilution MIC determination were used.

E. coli strain MP-4 = assay: Broth dilution MIC determination (CLSI) against E. coli strain MP-4; details: Escherichia coli, MP4
Description: as §1

[2] = test system: K. pneumoniae strain MP-548; assay: Broth dilution MIC determination (CLSI) against K. pneumoniae strain MP-548; details: Klebsiella pneumoniae, MP548
Description: as §1

[3] = test system: A. baumannii strain MP-15; assay: Broth dilution MIC determination (CLSI) against A. baumannii strain MP-15; details: Acinetobacter baumannii, MP15
Description: as §1

S. aureus strain MP-12 = assay: Broth dilution MIC determination (CLSI) against S. aureus strain MP-12; details: Staphylococcus aureus, MP12, strain MP-12
Description: as §1

MIC [1] | MIC (E. coli strain MP-4) | MIC [2] | MIC [3] | MIC (S. aureus strain MP-12) | SMILES
≥ 32 µg/mL | ≤ 4 µg/mL | 8 to 32 µg/mL (≈ 11.7 to 46.7 µM) | ≥ 32 µg/mL | ≥ 32 µg/mL | CC[C@H]1OC(=O)C(C)C(=O)[C@H](C)[C@@H](OC2OC(CN(C)C(C)C)CC(N(C)C)C2O)[C@](C)(OC)C[C@@H](C)CN[C@H](C)[C@H]2NC(=O)O[C@@]21C (some centres unmarked) [Compound 154, 3-Desdadinosyl-3-oxo-6-O-methyl-N9a-desmethyl-11,12-dideoxy-12,11-(oxycarbonylimino)-6′-isopropylmethylamino Azithromycin]
≥ 32 µg/mL | 8 to 32 µg/mL (≈ 10.7 to 42.6 µM) | ≥ 32 µg/mL | ≥ 32 µg/mL | ≥ 32 µg/mL | CC[C@H]1OC(=O)C(C)C(=O)[C@H](C)[C@@H](O[C@@H]2O[C@H](C(C)N(CC3CC3)CC3CC3)CC(N(C)C)[C@H]2O)[C@](C)(OC)C[C@@H](C)CN[C@H](C)[C@H]2NC(=O)O[C@@]21C (stereo partly drawn) [Compound 177, 3-Descladinosyl-3-oxo-6-O-methyl-N9a-desmethyl-11,12-dideoxy-12,11-(oxycarbonylimino)-6′-((R,S)-(dicyclopropylmethylamino)ethyl) Azithromycin]
≥ 32 µg/mL | 8 to 32 µg/mL (≈ 10.8 to 43.2 µM) | ≥ 32 µg/mL | ≥ 32 µg/mL | ≥ 32 µg/mL | CCCCCCCCNCC1CC(N(C)C)C(O)[C@H](O[C@@H]2[C@@H](C)C(=O)C(C)C(=O)O[C@H](CC)[C@@]3(C)OC(=O)N[C@@H]3[C@@H](C)NC[C@H](C)C[C@@]2(C)OC)O1 (some centres unmarked) [Compound 54]
≥ 32 µg/mL | 8 to 32 µg/mL (≈ 11.4 to 45.8 µM) | ≥ 32 µg/mL | ≥ 32 µg/mL | ≥ 32 µg/mL | CC[C@H]1OC(=O)C(C)C(=O)[C@H](C)[C@@H](O[C@@H]2OC(CNCC3COC3)CC(N(C)C)C2O)[C@](C)(OC)C[C@@H](C)CN[C@H](C)[C@H]2NC(=O)O[C@@]21C (some centres unmarked) [Compound 56]
≥ 32 µg/mL | ≥ 32 µg/mL | ≥ 32 µg/mL | ≥ 32 µg/mL | ≥ 32 µg/mL | CC[C@H]1OC(=O)C(C)C(=O)[C@H](C)[C@@H](O[C@@H]2OC(CNCc3ccc(C(C)(C)C)cc3)CC(N(C)C)C2O)[C@](C)(OC)C[C@@H](C)CN[C@H](C)[C@H]2NC(=O)O[C@@]21C (some centres unmarked) [Compound 37]
≥ 32 µg/mL | ≥ 32 µg/mL | ≥ 32 µg/mL | ≥ 32 µg/mL | ≥ 32 µg/mL | CC[C@H]1OC(=O)C(C)C(=O)[C@H](C)[C@@H](O[C@@H]2O[C@H](CN)CC(N(C)C)[C@H]2O)[C@](C)(OC)C[C@@H](C)CN[C@H](C)[C@H]2NC(=O)O[C@@]21C (some centres unmarked) [Compound 174, 3-Descladinosyl-3-oxo-6-O-methyl-N9a-desmethyl-11,12-dideoxy-12,11-(oxycarbonylimino)-11-methyl-6′-amino Azithromycin]

SMILES | MIC [1] | MIC (E. coli strain MP-4) | MIC [2] | MIC [3] | MIC (S. aureus strain MP-12)
CC[C@H]1OC(=O)[C@@]2(C)CCOC(C)(C[C@@H](C)CN(C)[C@H](C)[C@H]3NC(=O)O[C@@]31C)[C@H](O[C@@H]1OC(CNC(C)C)CC(N(C)C)C1O)[C@@H](C)C2=O (some centres unmarked) [Compound 214] | ≥ 32 µg/mL | ≤ 4 µg/mL | ≤ 4 µg/mL | ≥ 32 µg/mL | ≤ 4 µg/mL
CC[C@H]1OC(=O)[C@@]2(C)CCOC(C)(C[C@@H](C)CN(C)[C@H](C)[C@H]3NC(=O)O[C@@]31C)[C@H](O[C@@H]1OC(CN)CC(N(C)C)C1O)[C@@H](C)C2=O (some centres unmarked) [Compound 218] | ≥ 32 µg/mL | 8 to 32 µg/mL (≈ 12.2 to 48.9 µM) | ≥ 32 µg/mL | ≥ 32 µg/mL | 8 to 32 µg/mL (≈ 12.2 to 48.9 µM)
CC[C@H]1OC(=O)[C@]2(C)CCO[C@](C)(C[C@@H](C)CN[C@H](C)[C@H]3NC(=O)O[C@@]31C)[C@H](O[C@@H]1O[C@H](CO)C[C@H](N(C)C)[C@H]1O)[C@@H](C)C2=O [Compound 194] | ≥ 32 µg/mL | ≥ 32 µg/mL | ≥ 32 µg/mL | ≥ 32 µg/mL | ≥ 32 µg/mL
CC[C@H]1OC(=O)[C@@]2(C)CCO[C@](C)(C[C@@H](C)CN[C@H](C)[C@H]3NC(=O)O[C@@]31C)[C@H](O[C@@H]1O[C@H](CNCc3cccnc3)C[C@H](N(C)C)[C@H]1O)[C@@H](C)C2=O [Compound 201] | ≥ 32 µg/mL | ≥ 32 µg/mL | ≥ 32 µg/mL | ≥ 32 µg/mL | ≥ 32 µg/mL
